# Data taken from the supplement of paper PMC10307832.
# Columns and labels:
# Test in all cases: relative viability (nuclei count vs DMSO), 5 days (fraction); higher = more cells survive
# Pictilisib + Pemetrexed = compound: CS(=O)(=O)N1CCN(Cc2cc3nc(-c4cccc5[nH]ncc45)nc(N4CCOCC4)c3s2)CC1 [Pictilisib] + Nc1nc2[nH]cc(CCc3ccc(C(=O)N[C@@H](CCC(=O)O)C(=O)O)cc3)c2c(=O)[nH]1 [Pemetrexed] (partner 0.2 µM)
# Procedure, shortened: (§1)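 Lung cancer cell lines were pin-tool dosed in 1536-well plates on the day after seeding, with either a lone drug or a fixed anchor-drug dose plus five library-drug doses (not always all listed) in √10 steps. Nuclei were counted on 4× images after 5 days. Relative viability is the ratio of treated-well to vehicle-well nuclei counts, with each value a median of duplicate plates.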
# Pictilisib + Trametinib = compound: CS(=O)(=O)N1CCN(Cc2cc3nc(-c4cccc5[nH]ncc45)nc(N4CCOCC4)c3s2)CC1 [Pictilisib] + CC(=O)Nc1cccc(-n2c(=O)n(C3CC3)c(=O)c3c(Nc4ccc(I)cc4F)n(C)c(=O)c(C)c32)c1 [Trametinib] (partner 0.02 µM)
# Procedure, shortened: as §1
# MK-2206 + Bortezomib = compound: NC1(c2ccc(-c3nc4ccn5c(=O)[nH]nc5c4cc3-c3ccccc3)cc2)CCC1 [MK-2206] + CC(C)C[C@H](NC(=O)[C@H](Cc1ccccc1)NC(=O)c1cnccn1)B(O)O [Bortezomib] (partner 0.002 µM)
# Procedure, shortened: as §1
# MK-2206 + Pictilisib = compound: NC1(c2ccc(-c3nc4ccn5c(=O)[nH]nc5c4cc3-c3ccccc3)cc2)CCC1 [MK-2206] + CS(=O)(=O)N1CCN(Cc2cc3nc(-c4cccc5[nH]ncc45)nc(N4CCOCC4)c3s2)CC1 [Pictilisib] (partner 1 µM)
# Procedure, shortened: as §1
# MK-2206 + Palbociclib = compound: NC1(c2ccc(-c3nc4ccn5c(=O)[nH]nc5c4cc3-c3ccccc3)cc2)CCC1 [MK-2206] + CC(=O)c1c(C)c2cnc(Nc3ccc(N4CCNCC4)cn3)nc2n(C2CCCC2)c1=O [Palbociclib] (partner 0.5 µM)
# Procedure, shortened: as §1
Cell Line,relative viability (Pictilisib + Pemetrexed; first compound 0.02 µM),relative viability (Pictilisib + Pemetrexed; first compound 0.06325 µM),relative viability (Pictilisib + Pemetrexed; first compound 0.6325 µM),relative viability (Pictilisib + Pemetrexed; first compound 2 µM),relative viability (Pictilisib + Trametinib; first compound 0.02 µM),relative viability (Pictilisib + Trametinib; first compound 0.06325 µM),relative viability (Pictilisib + Trametinib; first compound 0.6325 µM),relative viability (Pictilisib + Trametinib; first compound 2 µM),relative viability (MK-2206 + Bortezomib; first compound 0.01 µM),relative viability (MK-2206 + Bortezomib; first compound 0.03162 µM),relative viability (MK-2206 + Bortezomib; first compound 0.3162 µM),relative viability (MK-2206 + Bortezomib; first compound 1 µM),relative viability (MK-2206 + Pictilisib; first compound 0.01 µM),relative viability (MK-2206 + Pictilisib; first compound 0.03162 µM),relative viability (MK-2206 + Pictilisib; first compound 0.3162 µM),relative viability (MK-2206 + Pictilisib; first compound 1 µM),relative viability (MK-2206 + Palbociclib; first compound 0.01 µM),relative viability (MK-2206 + Palbociclib; first compound 0.03162 µM),relative viability (MK-2206 + Palbociclib; first compound 0.3162 µM),relative viability (MK-2206 + Palbociclib; first compound 1 µM)
LC-2-ad,0.277,0.278,0.272,0.23,0.892,0.945,0.73,0.629,0.971,1.09,1.01,0.91,0.452,0.63,0.502,0.352,0.488,0.523,0.51,0.499
LCLC-97TM1,0.155,0.169,0.169,0.147,0.204,0.226,0.142,0.0739,0.415,0.593,0.39,0.44,0.231,0.259,0.131,0.164,0.264,0.233,0.191,0.198
LCLC-103H,0.468,0.419,0.475,0.428,0.649,0.711,0.501,0.558,1.04,1.03,1.02,1.07,0.642,0.688,0.54,0.701,0.496,0.499,0.461,0.462
LOU-NH91,0.381,0.368,0.4,0.372,0.867,0.715,0.68,0.567,0.466,0.521,0.47,0.443,0.551,0.479,0.461,0.474,0.531,0.46,0.507,0.547
LU99A,0.198,0.179,0.19,0.164,0.579,0.478,0.407,0.239,1.27,1.12,1.14,1.06,0.327,0.314,0.261,0.289,0.41,0.419,0.413,0.35
LXF-289,0.948,0.874,0.983,0.669,0.693,0.691,0.705,0.385,0.949,1.04,1.06,1.06,0.755,0.821,0.748,0.705,0.581,0.628,0.594,0.576
NCI-H23,0.618,0.757,0.5,0.374,0.367,0.319,0.241,0.163,0.906,1.04,0.91,0.975,0.528,0.491,0.444,0.464,0.555,0.5,0.427,0.459
NCI-H322M,0.541,0.616,0.584,0.239,0.516,0.529,0.407,0.394,1.12,1.35,1.31,1.41,0.509,0.529,0.489,0.511,0.51,0.469,0.519,0.527
NCI-H441,0.279,0.276,0.256,0.202,0.462,0.521,0.258,0.195,0.841,0.575,0.223,0.233,0.501,0.467,0.424,0.48,0.226,0.206,0.207,0.167
NCI-H460,0.0594,0.0727,0.0616,0.0599,0.157,0.215,0.0736,0.0266,1.03,1.2,0.97,1.06,0.355,0.307,0.294,0.222,0.137,0.224,0.142,0.0552
NCI-H520,0.613,0.624,0.268,0.148,0.57,0.64,0.215,0.14,0.485,0.675,0.431,0.242,0.275,0.228,0.276,0.223,0.215,0.218,0.153,0.149
NCI-H647,0.172,0.175,0.143,0.141,0.554,0.464,0.307,0.126,1.06,1.27,0.959,0.644,0.455,0.452,0.354,0.273,0.389,0.403,0.349,0.264
NCI-H650,1.02,0.887,0.701,0.525,1.03,0.969,0.8,0.5,0.898,0.932,0.642,0.656,0.804,0.901,0.87,0.81,0.292,0.328,0.311,0.309
NCI-H661,0.956,0.982,0.9,0.711,0.532,0.589,0.469,0.356,0.857,0.864,0.862,0.989,0.431,0.422,0.511,0.312,0.428,0.42,0.354,0.349
NCI-H838,0.24,0.251,0.314,0.184,0.431,0.453,0.374,0.246,0.822,0.916,0.836,0.751,0.517,0.436,0.464,0.42,0.223,0.226,0.203,0.193
